Measured values taken from patent US10188733B2 (priority 2010, dated 2019).

Tested on: VSV-specific neutralizing antibodies
Type: in vivo, mice
Conditions: for VSV antigen-specific neutralizing antibody titers: free bisphosphonate 2 mg footpad days -3 and -1, live VSV Indiana 10^4 pfu, serum day 8, vs control mice (FIG. 6); for antigen-specific antibody titers / increase in adaptive immune responses following immunization: mouse, in vivo

| Compound | VSV antigen-specific neutralizing antibody titers | antigen-specific antibody titers | increase in adaptive immune responses following immunization |
| --- | --- | --- | --- |
| NCCC(O)(P(=O)(O)O)P(=O)(O)O [pamidronate] | increased |  |  |
| CC(O)(P(=O)(O)O)P(=O)(O)O [etidronate] | increased |  |  |
| NCCCC(O)(P(=O)(O)O)P(=O)(O)O [alendronate] | increased |  |  |
| dextran sulfate |  | did not increase | failed to induce an increase |
| carrageenan |  | did not increase | failed to induce an increase |
